From the supplement of paper PMC10307832

What was measured:
Test in all cases: relative viability (nuclei count vs DMSO), 5 days (fraction); higher = more cells survive
R406 + Navitoclax = compound: COc1cc(Nc2ncc(F)c(Nc3ccc4c(n3)NC(=O)C(C)(C)O4)n2)cc(OC)c1OC [R406] + CC1(C)CCC(c2ccc(Cl)cc2)=C(CN2CCN(c3ccc(C(=O)NS(=O)(=O)c4ccc(N[C@H](CCN5CCOCC5)CSc5ccccc5)c(S(=O)(=O)C(F)(F)F)c4)cc3)CC2)C1 [Navitoclax] (partner 0.5 µM)
In short: (§1)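 Cells from lung cancer lines were seeded into 1536-well plates and, one day later, dosed by pin tool. Treatments were either a single drug or a fixed dose of an anchor drug with five library-drug doses (not always all listed) in √10 steps. After 5 days, nuclei were stained in a one-step fixation (final 0.05% Triton X-100, 1% formaldehyde, 1 ug/ml Hoechst) and counted on 4× images, and relative viability is the treated-to-vehicle nuclei ratio, as the median of duplicate plates.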

R406 + Foretinib = compound: COc1cc(Nc2ncc(F)c(Nc3ccc4c(n3)NC(=O)C(C)(C)O4)n2)cc(OC)c1OC [R406] + COc1cc2c(Oc3ccc(NC(=O)C4(C(=O)Nc5ccc(F)cc5)CC4)cc3F)ccnc2cc1OCCCN1CCOCC1 [Foretinib] (partner 0.25 µM)
In short: as §1

Daporinad = compound: O=C(/C=C/c1cccnc1)NCCCCC1CCN(C(=O)c2ccccc2)CC1 [Daporinad]
In short: (§2)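 Acceptance criteria were a control CV below 25% and at least one doubling per plate. Lung cancer cell lines in 1536-well plates got five library-drug doses (not always all listed) √10 apart by pinning and were left 5 days with no medium change. Viability divides treated-well nuclei by vehicle-well nuclei and is the median across plates. Nuclei were counted by MetaXpress from 4× Hoechst images.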

R406 = compound: COc1cc(Nc2ncc(F)c(Nc3ccc4c(n3)NC(=O)C(C)(C)O4)n2)cc(OC)c1OC [R406]
In short: as §2

Cell Line | relative viability (R406 + Navitoclax; first compound 0.08 µM) | relative viability (R406 + Navitoclax; first compound 0.253 µM) | relative viability (R406 + Navitoclax; first compound 0.8 µM) | relative viability (R406 + Navitoclax; first compound 2.53 µM) | relative viability (R406 + Navitoclax; first compound 8 µM) | relative viability (R406 + Foretinib; first compound 0.08 µM) | relative viability (R406 + Foretinib; first compound 0.253 µM) | relative viability (R406 + Foretinib; first compound 0.8 µM) | relative viability (R406 + Foretinib; first compound 2.53 µM) | relative viability (R406 + Foretinib; first compound 8 µM) | relative viability (Daporinad; 0.0005 µM) | relative viability (Daporinad; 0.001581 µM) | relative viability (Daporinad; 0.005 µM) | relative viability (Daporinad; 0.01581 µM) | relative viability (R406; 0.08 µM) | relative viability (R406; 0.253 µM) | relative viability (R406; 0.8 µM) | relative viability (R406; 2.53 µM) | relative viability (R406; 8 µM)
EPLC-272H | 1.03 | 1.18 | 1.21 | 0.63 | 0.589 | 0.425 | 0.617 | 0.792 | 0.304 | 0.126 | 0.856 | 1.04 | 1.06 | 1.04 | 0.919 | 0.975 | 1.07 | 0.438 | 0.379
EBC-1 | 0.433 | 0.403 | 0.422 | 0.317 | 0.189 | 0.102 | 0.107 | 0.0997 | 0.118 | 0.122 | 0.829 | 1.06 | 1.03 | 1.08 | 0.99 | 1.14 | 1.25 | 0.877 | 0.481
NCI-H1915 | 0.769 | 0.799 | 0.789 | 0.707 | 0.662 | 0.983 | 1.16 | 1.11 | – | 0.989 | 1.01 | 1.13 | 1.07 | 1.03 | 1.01 | 1.15 | 1.05 | 0.667 | 0.835
NCI-H647 | 1.04 | 1.29 | 1.18 | 0.562 | 0.467 | 1.24 | 1.2 | 1.15 | 0.917 | 1.05 | 0.914 | 1.11 | 1.07 | 1.05 | 0.943 | 1.13 | 1.1 | 0.538 | 0.233
NCI-H322M | 1.13 | 1.23 | 1.28 | 0.862 | 0.534 | 0.962 | 0.917 | 1.03 | 0.547 | 0.559 | 0.906 | 1.05 | 0.936 | 0.751 | 0.889 | 0.922 | 0.939 | 0.542 | 0.405
NCI-H1299 | 1.01 | 1.06 | 1.05 | 1.11 | 0.995 | 1.01 | 1.14 | 1.07 | 1.2 | 1.02 | 1.01 | 1.04 | 1.04 | 1.04 | 1 | 1.08 | 1.07 | 1.06 | 0.744
NCI-H2228 | 1.17 | 1.33 | 0.996 | 0.628 | 0.168 | 0.798 | 1.01 | 0.972 | 0.567 | 0.337 | 0.925 | 0.846 | 1.24 | 0.973 | 1.1 | 1.3 | 1.15 | 0.385 | 0.298
IA-LM | 0.799 | 1.03 | 0.946 | 1.02 | 0.843 | 1.23 | 1.43 | 0.958 | 1.36 | 1.02 | 0.888 | 0.896 | 0.968 | 0.859 | 1.07 | 1.19 | 0.957 | 1.05 | 0.913
NCI-H2170 | 0.524 | 0.54 | 0.662 | 0.294 | 0.516 | 0.964 | 1.11 | 1 | 0.916 | 0.814 | 0.923 | 1.06 | 1.03 | 1.06 | 0.962 | 0.972 | 1.06 | 0.729 | 0.892
NCI-H1793 | 0.336 | 0.442 | 0.398 | 0.206 | 0.17 | 0.582 | 0.641 | 0.809 | 0.464 | 0.139 | 0.801 | 0.959 | 0.984 | 1.09 | 0.731 | 1.17 | 1.13 | 0.159 | 0.279
NCI-H2085 | 1.13 | 1.16 | 1.28 | 1.01 | 0.667 | 0.847 | 1.08 | 0.973 | 0.912 | 0.289 | 0.984 | 1.02 | 1.08 | 1.18 | 0.99 | 1.06 | 1.1 | 0.823 | 0.736
NCI-H838 | 1.14 | 1.23 | 1.34 | 0.802 | 0.305 | 0.984 | 1.17 | 1.09 | 0.645 | 0.791 | 0.999 | 1.03 | 1.04 | 0.657 | 0.911 | 1.08 | 1.11 | 0.544 | 0.214
NCI-H460 | 1.16 | 1.35 | 1.25 | – | 0.476 | 0.887 | 1.13 | 1.16 | 1.07 | 0.781 | 0.996 | 1.02 | 0.953 | 1.02 | 0.965 | 1.11 | 1.09 | 0.966 | 0.766
LOU-NH91 | 0.715 | 0.701 | 0.752 | 0.318 | 0.313 | 0.918 | 0.975 | 0.918 | 0.518 | 0.475 | 0.996 | 1.05 | 1.14 | 1.24 | 0.916 | 0.963 | 0.928 | 0.512 | 0.576
